What was measured:
[1] = permeability controls; cited from earlier work
K-Ras(G12R)·GDP = target: T1, K-Ras(G12R)·GDP (Homo sapiens, UniProt P01116, G12R); experiment: Intact protein mass spectrometry, covalent modification; format: binding; details: 100 μM compound, pH 7.5, 23° C.; adducts +656 Da and +638 Da
T1 construct: human K-Ras (G12R, aa 1-169); 6xHis tag + TEV cleavage site (N, cleaved yes); made in house; host or cells: E. coli BL21(DE3)
Method: Purified K-Ras variants (4 μM final) were incubated with compounds at 50 or 100 μM (1% v/v DMSO final) in 20 mM HEPES pH 7.5, 150 mM NaCl, 1 mM MgCl2 in a total volume of 150 μL. After the noted time, the samples were analyzed by intact protein LC/MS using a Waters Xevo G2-XS system equipped with an Acquity UPLC BEH C4 1.7 μm column. The mobile phase was a linear gradient of 5-95% acetonitrile/water+0.05% formic acid. The spectra were processed using QuantLynx, giving the ion counts observed for the most abundant species. For assays conducted under an alternate pH, the HEPES buffer was replaced with one of the following buffers (maintaining 150 mM NaCl and 1 mM MgCl2): 20 mM MES pH 6 or 20 mM Tris pH 9.

[2] = target: T2, K-Ras(G12R) Cyslight bound by GDP (Homo sapiens, UniProt P01116, C118S/C51S/C80L/G12R); experiment: LC-MS analysis of adduct formation for crystallization; format: binding; details: 100 μM protein, 200 μM compound, 23° C.
T2 construct: human K-Ras G12R Cyslight (G12R/C51S/C80L/C118S, aa 1-169); 6xHis tag + TEV cleavage site (N, cleaved yes); made in house; host or cells: E. coli BL21(DE3)
Method: K-Ras(G12R) Cyslight ([…]/C51S/C80L/C118S) bound by GDP purified by size exclusion chromatography was diluted to 100 μM in Reaction Buffer (20 mM HEPES 7.5, 150 mM NaCl, 1 mM MgCl2). […] The reaction mixture was purified by size exclusion chromatography (Superdex75, 20 mM HEPES 7.5, 150 mM NaCl, 1 mM MgCl2) and concentrated to 20 mg/mL. For crystallization, 0.1 μL of the protein was mixed with 0.1 μL well buffer containing 0.1 M MES pH 6.5, 30% w/v PEG 4K. Crystals were grown at 20° C. in a 96-well plate using the hanging-drop vapor diffusion method. Maximal crystal growth was achieved after 7 days. The crystals were transferred to a cryoprotectant solution (0.1 M MES pH 6.5, 30% w/v PEG 4K, 15% glycerol) and flash-frozen in liquid nitrogen.

[3] = system: BaF3/G12R cells (±IL-3), TCC-Pan-2 cells, and A375 cells; experiment: Cellular activity (phospho-ERK immunoblot, growth inhibition); format: cell-based; details: at concentrations below 100 μM
Method: When indicated, cells were treated with drugs at 40-60% confluency at a final DMSO concentration of 1%. At the end of treatment period, cells were placed on ice. Unless otherwise indicated, adherent cells were washed once with ice-cold PBS (1 mL), scraped with a spatula, and pelleted by centrifugation (500×g, 5 min). Suspension cells were pelleted by centrifugation (500×g, 5 min), washed with 1 mL ice-cold PBS, and pelleted again. Cells were lysed in RIPA buffer supplemented with protease and phosphatase inhibitors (cOmplete and phosSTOP, Roche) on ice for 10 min. Lysates were clarified by high-speed centrifugation (19,000×g, 10 min). Concentrations of lysates were determined with protein BCA assay (Thermo Fisher) and adjusted to 2 mg/mL with additional RIPA buffer (or Co-IP Lysis Buffer). Samples were mixed with 5×SDS Loading Dye and heated at 95° C. for 5 min.
Cells were seeded into 96-well white flat bottom plates (1,000 cells/well) (Corning) and incubated overnight. Cells were treated with the indicated compounds in a nine-point threefold dilution series (100 μL final volume) and incubated for 72 h. Cell viability was assessed using a commercial CellTiter-Glo (CTG) luminescence-based assay (Promega). […] Plates were placed on an orbital shaker for 30 min before recording luminescence using a Spark 20M (Tecan) plate reader.

## O=C(N[C@H](CO)[C@H](O)c1ccc([N+](=O)[O-])cc1)C(Cl)Cl [Chloramphenicol]
[1]
  permeability class of PAMPA control: high

## O=C(O)Cc1ccccc1Nc1c(Cl)cccc1Cl [Diclofenac]
[1]
  permeability class of PAMPA control: medium

## CC(=O)CC(=O)N1[C@@H]2CC[C@H]1CN(c1nc(OCC34CCCN3CCC4)nc3c(F)c(-c4cccc5cccc(Cl)c45)ncc13)C2 [compound 2, 1-((1R,5S)-3-(7-(8-chloronaphthalen-1-yl)-8-fluoro-2-((tetrahydro-1H-pyrrolizin-7a(5H)-yl)methoxy)pyrido[4,3-d]pyrimidin-4-yl)-3,8-diazabicyclo[3.2.1]octan-8-yl)butane-1,3-dione]
K-Ras(G12R)·GDP
  covalent adduct formation with recombinant K-Ras(G12R)·GDP: did not form any detectable covalent adduct

## CC(=O)C(O)(O)C(=O)N1CCN(c2nc(OCC34CCCN3CCC4)nc3c(F)c(-c4cccc5cccc(Cl)c45)ncc23)C[C@@H]1CC#N [compound 4, (S)-2-(4-(7-(8-chloronaphthalen-1-yl)-8-fluoro-2-((tetrahydro-1H-pyrrolizin-7a(5H)-yl)methoxy)pyrido[4,3-d]pyrimidin-4-yl)-1-(2,2-dihydroxy-3-oxobutanoyl)piperazin-2-yl)acetonitrile]
[2]
  conversion of K-Ras(G12R) Cyslight·GDP to covalent adduct: full conversion to a single covalent adduct
[3]
  cellular activity: did not show cellular activity

Reference: patent US20260137687A1, “GTPase INHIBITORS AND USES THEREOF” (The Regents of The University of California, priority 2022, published 2026)
